Laboratory results: patent publication US10869931B2, “Polyethylene glycol-modified angiogenesis inhibitor HM-1 and application thereof” (NANJING ANJI BIOLOGICAL TECHNOLOGY CO.,LTD, priority 2016, dated 2020)
“And” between values parts separate entries of the source, which are not always exact repeats. Equal values may be shown once. Marks after values point to notes of the source that are not given here. Where no end group is shown, it is not given here.

Assays:
[1] = tested on: sarcoma tumor cells; test: MTT proliferation inhibition, sarcoma cells; assay type: cell-based, human; set-up: concentration or dose not given beside the values; conditions: 48 h
How it was run: (§1)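 Tumour cells plated at 2×10^4 cells/mL, attached overnight, then exposed to dilutions of mPEG-HM-1 for 48 h at 37 °C, 5% CO2. MTT added 4 h, formazan dissolved in DMSO, absorbance 570/630 nm; growth inhibition = 1 − treated/untreated, three independent repeats, mean±SD.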

[2] = tested on: Breast cancer tumor cells; test: MTT proliferation inhibition, breast cancer cells; assay type: cell-based, human; set-up: concentration or dose not given beside the values; conditions: 48 h
How it was run: as §1

[3] = tested on: Pancreatic cancer tumor cells; test: MTT proliferation inhibition, pancreatic cancer cells; assay type: cell-based, human; set-up: concentration or dose not given beside the values; conditions: 48 h
How it was run: as §1

[4] = tested on: choroidal neovascularization in BN rats; test: Laser-induced choroidal neovascularization in BN rats (FFA); assay type: in vivo, rat
Procedure: 6-8 weeks old male BN rats were anesthetized with 846 compound anesthetic 0.5 mL/kg administered intraperitoneally. The eye drops of compound tropamide eyes were used 5 minutes before laser photocoagulation, and the pupils of both eyes were fully scattered. Fix animals, with the aid of −53.00 D contact lens, around the optic disc and along the same distance from the optic disc 2PD, the laser beam photocoagulation were performed to make a total of 8 photo-condensation spots, with laser wavelength of 647.1 nm, power of 350 mW, photocoagulation spot diameter and time were 50 μm and 0.05 s, respectively. Immediately after photocoagulation, fundus photography was performed. FFA, histopathology and transmission electron microscopy were performed at 3, 7, 14, 21, and 28 days after photocoagulation.
It was confirmed by fundus photography and FFA examination that the fluorescein leakage of photocoagulation peaked on the 21st day after photocoagulation, and histopathological examination was performed at the same time. […] A large number of neovascular vessels were seen, and red blood cells were visible in the lumen. Microscopically, capillary cells in the choroidal melanocytes were cohesively altered and endothelial cells aggregated.
Rats that were successfully modeled were randomly divided into groups of 5 rats each. They were labeled as negative control group, mPEG-SC-HM-1 treatment group, mPEG2-NHS-HM-1 treatment group, mPEG-ALD-HM-1 treatment group and mPEG-bALD-HM-1 treatment group, respectively. Saline, mPEG-HM-1 (see Table 53 for dosing) was administered intravitreally, once daily for 1 week. FFA examinations were performed 3 days, 7 days, 14 days, and 28 days after administration of the modified peptides.

[5] = tested on: collagen induced arthritis (CIA) in DBA/1 mice; test: Collagen-induced mouse arthritis (CIA) model; assay type: in vivo; conditions: for Joint swelling / Left and right paw swelling / Clinical score: CIA DBA/1 mice; for Clinical score: maximum score 16; for limbs score (in words): CIA mice, subcutaneous, once every three days, vs model control group
[6] = tested on: retinal neovascular clusters in OIR C57/B16 mice; test: Retinal blood vessels in OIR mice; assay type: in vivo, mouse; conditions: for Neovascular clusters area: retina evaluated on day 17; for Inhibition rate: neovascular clusters area vs control, day 17; for inhibition rate of retinal neovascular clusters: OIR mice, 50 μg intravitreal injection, evaluated day 17
From the text: Establishment of the OIR model: Exposure of young mouse and their mothers to 75% hyperoxic environment from day 7 to day 12 after birth of C57/B16 mice caused rapid disappearance of capillaries in the central retina. Upon returning to the indoor air on the 12th day, the retinal blood vessels, upon exposing to hyperoxia, rapidly disappeared, causing extensive abnormal neovascularization, and the central portion of the retina remained largely avascular for a long time. After the blood vessels disappeared completely, on the 13th day, physiological saline (negative control group), mPEG-SC-HM-1, mPEG2-NHS-HM-1, mPEG-ALD10k-HM-1, and mPEG-bALD-HM-1, were administered by intravitreal injection and retinal vessels were evaluated on day 17 (to label unclosed vessels, […] of Texas Red-labeled tomato lectin was injected into the left ventricle and circulated for 5 min).

[7] = tested on: Lung cancer tumor cells; test: MTT proliferation inhibition, lung cancer cells; assay type: cell-based, human; set-up: concentration or dose not given beside the values; conditions: 48 h
How it was run: as §1

[8] = Day 3 after administration, 200 μg intravitreally once daily for 1 week (Table 53)
[9] = Day 3 after administration, 200 μg intravitreally once daily for 1 week (Table 53), total spots 290-296 by table
[10] = Day 7, 200 μg intravitreally once daily for 1 week (Table 53)
[11] = Day 7, 200 μg intravitreally once daily for 1 week (Table 53), total spots 182-188 by table
[12] = Day 14, 200 μg intravitreally once daily for 1 week (Table 53)
[13] = Day 14, 200 μg intravitreally once daily for 1 week (Table 53), total spots 132-138 by table
[14] = Day 28, 200 μg intravitreally once daily for 1 week (Table 53)
[15] = Day 28, 200 μg intravitreally once daily for 1 week (Table 53), total spots 67-71 by table
[16] = 80 mg/kg subcutaneous from day 30 of modeling
[17] = 200 μg intravitreal injection on day 13
[18] = Day 3 after administration, 50 μg intravitreally once daily for 1 week (Table 53)
[19] = Day 3 after administration, 50 μg intravitreally once daily for 1 week (Table 53), total spots 290-296 by table
[20] = Day 7, 50 μg intravitreally once daily for 1 week (Table 53)
[21] = Day 7, 50 μg intravitreally once daily for 1 week (Table 53), total spots 182-188 by table
[22] = Day 14, 50 μg intravitreally once daily for 1 week (Table 53)
[23] = Day 14, 50 μg intravitreally once daily for 1 week (Table 53), total spots 132-138 by table
[24] = Day 28, 50 μg intravitreally once daily for 1 week (Table 53)
[25] = Day 28, 50 μg intravitreally once daily for 1 week (Table 53), total spots 67-71 by table
[26] = 20 mg/kg subcutaneous from day 30 of modeling
[27] = 50 μg intravitreal injection on day 13
[28] = 40 mg/kg subcutaneous from day 30 of modeling

Substance: mPEG-SC40k-Arg-Gly-Ala-Asp-Arg-Ala-Gly-Gly-Gly-Gly-Arg-Gly-Asp ({mPEG‑SC 40 kDa}-RGADRAGGGGRGD) [mPEG-SC40k-HM-1]
- rate of growth inhibition [1]: 45.26 ± 11.61%
- rate of growth inhibition [2]: 50.12 ± 18.09%
- rate of growth inhibition [3]: 60.45 ± 17.25%
- CNV Incidence rate [4, 8]: 50.68%
- leakage Spots # [4, 9]: 150
- CNV Incidence rate [4, 10]: 50.00%
- leakage Spots # [4, 11]: 94
- CNV Incidence rate [4, 12]: 44.44%
- leakage Spots # [4, 13]: 60
- CNV Incidence rate [4, 14]: 43.28%
- leakage Spots # [4, 15]: 29
- Joint swelling [5, 16]: 0.80 ± 0.16 mm
- Left and right paw swelling [5, 16]: 0.80 ± 0.16 mm
- Clinical score [5, 16]: 9.09 ± 1.33
- Neovascular clusters area [6, 17]: 0.119 ± 0.005 mm^2
- Inhibition rate ([6]; 200 μg intravitreal): 46.18%*
- rate of growth inhibition [7]: 51.32 ± 16.29%

Substance: mPEG-ALD10k-Arg-Gly-Ala-Asp-Arg-Ala-Gly-Gly-Gly-Gly-Arg-Gly-Asp ({mPEG‑ALD 10 kDa}-RGADRAGGGGRGD) [mPEG-ALD10k-HM-1]
- rate of growth inhibition [1]: 53.01 ± 11.42%
- rate of growth inhibition [2]: 70.19 ± 17.07%
- rate of growth inhibition [3]: 79.21 ± 19.14%
- incidence of CNV ([4]; BN rats, 28 days after administration, intravitreal once daily for 1 week): 39.44% and 39.13%
- CNV Incidence rate [4, 18]: 48.62%
- leakage Spots # [4, 19]: 141
- CNV Incidence rate [4, 20]: 46.15%
- leakage Spots # [4, 21]: 84
- CNV Incidence rate [4, 22]: 41.67%
- leakage Spots # [4, 23]: 55
- CNV Incidence rate [4, 24]: 39.44%
- leakage Spots # [4, 25]: 28
- Joint swelling [5, 26]: 0.73 ± 0.15 mm
- Left and right paw swelling [5, 26]: 0.70 ± 0.14 mm
- Clinical score [5, 26]: 8.65 ± 1.33
- limbs score (in words) [5]: significantly lower than that of the model control group
- Neovascular clusters area [6, 27]: 0.085 ± 0.007 mm^2
- Inhibition rate ([6]; 50 μg intravitreal): 61.75%**
- inhibition rate of retinal neovascular clusters [6]: 61.75%
- rate of growth inhibition [7]: 65.73 ± 16.20%

Substance: mPEG-bALD10k-Arg-Gly-Ala-Asp-Arg-Ala-Gly-Gly-Gly-Gly-Arg-Gly-Asp ({mPEG‑bALD 10 kDa}-RGADRAGGGGRGD) [mPEG-bALD10k-HM-1]
- rate of growth inhibition [1]: 52.01 ± 12.32%
- rate of growth inhibition [2]: 68.15 ± 15.87%
- rate of growth inhibition [3]: 75.23 ± 16.41%
- CNV Incidence rate [4, 18]: 48.46%
- leakage Spots # [4, 19]: 142
- CNV Incidence rate [4, 20]: 46.49%
- leakage Spots # [4, 21]: 86
- CNV Incidence rate [4, 22]: 42.03%
- leakage Spots # [4, 23]: 58
- CNV Incidence rate [4, 24]: 39.13%
- leakage Spots # [4, 25]: 27
- Joint swelling [5, 26]: 0.74 ± 0.12 mm
- Left and right paw swelling [5, 26]: 0.71 ± 0.12 mm
- Clinical score [5, 26]: 8.69 ± 1.38
- limbs score (in words) [5]: significantly lower than that of the model control group
- Neovascular clusters area [6, 27]: 0.083 ± 0.006 mm^2
- Inhibition rate ([6]; 50 μg intravitreal): 62.35%**
- inhibition rate of retinal neovascular clusters [6]: 62.35%
- rate of growth inhibition [7]: 66.72 ± 14.42%

Substance: mPEG-ALD20k-Arg-Gly-Ala-Asp-Arg-Ala-Gly-Gly-Gly-Gly-Arg-Gly-Asp ({mPEG‑ALD 20 kDa}-RGADRAGGGGRGD) [mPEG-ALD20k-HM-1]
- rate of growth inhibition [1]: 50.96 ± 11.68%
- rate of growth inhibition [2]: 65.17 ± 18.20%
- rate of growth inhibition [3]: 70.65 ± 20.29%
- CNV Incidence rate ([4]; Day 3 after administration, 100 μg intravitreally once daily for 1 week (Table 53)): 51.72%
- leakage Spots # ([4]; Day 3 after administration, 100 μg intravitreally once daily for 1 week (Table 53), total spots 290-296 by table): 150
- CNV Incidence rate ([4]; Day 7, 100 μg intravitreally once daily for 1 week (Table 53)): 48.90%
- leakage Spots # ([4]; Day 7, 100 μg intravitreally once daily for 1 week (Table 53), total spots 182-188 by table): 89
- CNV Incidence rate ([4]; Day 14, 100 μg intravitreally once daily for 1 week (Table 53)): 45.45%
- leakage Spots # ([4]; Day 14, 100 μg intravitreally once daily for 1 week (Table 53), total spots 132-138 by table): 60
- CNV Incidence rate ([4]; Day 28, 100 μg intravitreally once daily for 1 week (Table 53)): 40.85%
- leakage Spots # ([4]; Day 28, 100 μg intravitreally once daily for 1 week (Table 53), total spots 67-71 by table): 29
- Joint swelling [5, 28]: 0.72 ± 0.16 mm
- Left and right paw swelling [5, 28]: 0.74 ± 0.13 mm
- Clinical score [5, 28]: 8.66 ± 1.38
- Neovascular clusters area ([6]; 100 μg intravitreal injection on day 13): 0.095 ± 0.009 mm^2
- Inhibition rate ([6]; 100 μg intravitreal): 57.03%**
- rate of growth inhibition [7]: 66.38 ± 17.16%

Substance: mPEG-bALD40k-Arg-Gly-Ala-Asp-Arg-Ala-Gly-Gly-Gly-Gly-Arg-Gly-Asp ({mPEG‑bALD 40 kDa}-RGADRAGGGGRGD) [mPEG-bALD40k-HM-1]
- rate of growth inhibition [1]: 47.90 ± 10.70%
- rate of growth inhibition [2]: 62.45 ± 19.04%
- rate of growth inhibition [3]: 62.85 ± 18.74%
- CNV Incidence rate [4, 8]: 52.22%
- leakage Spots # [4, 9]: 153
- CNV Incidence rate [4, 10]: 50.81%
- leakage Spots # [4, 11]: 94
- CNV Incidence rate [4, 12]: 47.10%
- leakage Spots # [4, 13]: 65
- CNV Incidence rate [4, 14]: 42.03%
- leakage Spots # [4, 15]: 29
- Joint swelling [5, 16]: 0.78 ± 0.16 mm
- Left and right paw swelling [5, 16]: 0.79 ± 0.13 mm
- Clinical score [5, 16]: 9.01 ± 1.45
- Neovascular clusters area [6, 17]: 0.110 ± 0.012 mm^2
- Inhibition rate ([6]; 200 μg intravitreal): 50.31%**
- rate of growth inhibition [7]: 56.47 ± 14.15%
